Measured values taken from PMC7759869 (Biomedicines, 2020).

Tests used:
VEGFR2 = details: read-out: IC50 for VEGFR2; estimated; cited from earlier work
CYP3A4 + cyt b5 = target: T1, CYP3A4 + cyt b5 (Homo sapiens, UniProt P08684); experiment: Cabozantinib oxidation by recombinant CYP3A4 in the presence of cyt b5 (Supersomes); type: in vitro ADME; details: Supersomes with cyt b5 vs without, 50 µM cabozantinib
T1 construct: purchased Corning (Corning, NY, USA); host or cells: insect cells (baculovirus)
Text: Cabozantinib was from MedChemExpress (Monmouth Junction, NJ, USA). Standard of cabozantinib N-oxide was purchased from Toronto Research Chemicals (Toronto, Canada). Ketoconazole, NADPH and other chemicals were all purchased from Merck (Darnstadt, Germany). The purity of all chemicals met the standards of American Chemical Society, unless otherwise noted. Male human hepatic microsomes (pooled sample) (sample LOT: 3043885) were from Gentest Corp. (Woburn, MA, USA). Microsomes from livers of twelve human donors were obtained from Gentest Corp. (Woburn, MA, USA) (Lot. no. HG43-1, HG103, HG74, HG93, HG24, HG27, HG23, HG32, HK31, HK34, HG03 and HG42). Each human microsomal sample was characterized for CYP, FMO, total protein contents and specific CYP activities by Gentest Corp. and reanalyzed by us by assays described in the protocols of Gentest Corp. Our data were similar to those reported by Gentest Corp. (Table 1). Human recombinant enzymes were used in the forms of Supersomes™ and obtained from Corning (Corning, NY, USA). In Supersomes™, microsomal fractions were isolated from insect cells that were transfected with baculovirus constructs containing cDNA of human CYP enzymes (CYP1A1/2, 1B1, 2A6, 2B6, 2C8/9/18/19/, 2D6, 2E1, 3A4). The Supersomes™ also express NADPH:CYP oxidoreductase (POR). However, because they are microsomes (particles of broken endoplasmic reticulum), other enzymes (proteins) of the endoplasmic reticulum membrane (like NADH:cytochrome b5 reductase and cytochrome b5) are also expressed at basal levels in these Supersomes™. We also utilized Supersomes™, which overexpressed cytochrome b5, in a molar ratio of CYP to cytochrome b5 of 1 to 5. In Supersomes™, where cytochrome b5 was not overexpressed (see above), pure cytochrome b5 was added to reach a molar ratio of CYP to cytochrome b5 of 1 to 5. Reconstitution of Supersomes™ with purified cytochrome b5 was performed as described previously. Human recombinant FMOs and AO were also used in the forms of Supersomes™ (Gentest Corp., Woburn, MA, USA). These microsomal fractions were isolated from insect cells that are transfected with baculovirus constructs containing cDNA of human FMO1, FMO3, FMO5 or AO enzymes.
The reaction was initiated by adding NADPH. In control incubations, either microsomes or CYP (FMO, AO) or NADPH were omitted. […] The reaction was stopped by extraction with ethyl acetate (2 × 1 mL). […] Cabozantinib metabolites separated by HPLC were characterized by mass spectroscopy (see further details below).

CYP3A4 = CYP3A4 (Homo sapiens, UniProt P08684); details: cited from earlier work
MET = details: read-out: IC50 for MET; estimated; cited from earlier work
RET = details: estimated; cited from earlier work
FMO1 = target: T2, FMO1 (Homo sapiens, UniProt Q01740); experiment: Oxidation of cabozantinib by recombinant FMO1; type: in vitro ADME; details: human recombinant enzyme, data not shown
T2 construct: purchased Gentest Corp., Woburn, MA, USA; host or cells: insect cells (baculovirus)
T2 sequence (Q01740 1-532): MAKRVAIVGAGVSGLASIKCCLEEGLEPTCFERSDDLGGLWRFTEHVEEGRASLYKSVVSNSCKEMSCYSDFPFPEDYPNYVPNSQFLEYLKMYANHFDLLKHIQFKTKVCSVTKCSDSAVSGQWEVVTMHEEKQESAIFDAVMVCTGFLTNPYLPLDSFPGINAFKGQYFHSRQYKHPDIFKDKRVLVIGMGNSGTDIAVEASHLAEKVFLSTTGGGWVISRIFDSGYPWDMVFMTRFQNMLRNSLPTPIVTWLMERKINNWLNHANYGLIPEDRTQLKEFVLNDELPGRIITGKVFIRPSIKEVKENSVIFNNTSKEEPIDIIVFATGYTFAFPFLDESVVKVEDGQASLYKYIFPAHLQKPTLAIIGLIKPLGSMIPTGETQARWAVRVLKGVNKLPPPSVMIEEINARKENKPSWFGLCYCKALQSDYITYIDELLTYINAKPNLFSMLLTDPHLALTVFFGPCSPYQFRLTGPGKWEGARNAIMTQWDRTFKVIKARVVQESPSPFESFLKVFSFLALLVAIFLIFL
Text: The purity of all chemicals met the standards of American Chemical Society, unless otherwise noted. […] Microsomes from livers of twelve human donors were obtained from Gentest Corp. (Woburn, MA, USA) (Lot. no. HG43-1, HG103, HG74, HG93, HG24, HG27, HG23, HG32, HK31, HK34, HG03 and HG42). […] Human recombinant enzymes were used in the forms of Supersomes™ and obtained from Corning (Corning, NY, USA). In Supersomes™, microsomal fractions were isolated from insect cells that were transfected with baculovirus constructs containing cDNA of human CYP enzymes (CYP1A1/2, 1B1, 2A6, 2B6, 2C8/9/18/19/, 2D6, 2E1, 3A4). The Supersomes™ also express NADPH:CYP oxidoreductase (POR). However, because they are microsomes (particles of broken endoplasmic reticulum), other enzymes (proteins) of the endoplasmic reticulum membrane (like NADH:cytochrome b5 reductase and cytochrome b5) are also expressed at basal levels in these Supersomes™. We also utilized Supersomes™, which overexpressed cytochrome b5, in a molar ratio of CYP to cytochrome b5 of 1 to 5. In Supersomes™, where cytochrome b5 was not overexpressed (see above), pure cytochrome b5 was added to reach a molar ratio of CYP to cytochrome b5 of 1 to 5. Reconstitution of Supersomes™ with purified cytochrome b5 was performed as described previously. Human recombinant FMOs and AO were also used in the forms of Supersomes™ (Gentest Corp., Woburn, MA, USA).

T1 sequence (P08684 whole entry): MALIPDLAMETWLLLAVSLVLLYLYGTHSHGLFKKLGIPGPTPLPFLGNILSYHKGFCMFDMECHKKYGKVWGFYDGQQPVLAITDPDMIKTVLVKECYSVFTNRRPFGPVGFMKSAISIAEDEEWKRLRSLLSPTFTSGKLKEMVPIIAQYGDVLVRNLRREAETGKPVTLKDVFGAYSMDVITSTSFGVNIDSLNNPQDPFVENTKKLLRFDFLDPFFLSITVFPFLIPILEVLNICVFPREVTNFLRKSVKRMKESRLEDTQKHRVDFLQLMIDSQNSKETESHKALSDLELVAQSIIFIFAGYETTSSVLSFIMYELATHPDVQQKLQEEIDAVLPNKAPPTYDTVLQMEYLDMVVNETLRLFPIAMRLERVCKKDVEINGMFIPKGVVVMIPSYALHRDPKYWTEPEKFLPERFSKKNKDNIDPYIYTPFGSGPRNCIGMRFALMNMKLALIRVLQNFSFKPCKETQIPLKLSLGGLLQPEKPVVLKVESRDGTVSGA
Sequence of CYP3A4 (P08684 whole entry): as above

COc1cc2nccc(Oc3ccc(NC(=O)C4(C(=O)Nc5ccc(F)cc5)CC4)cc3)c2cc1OC [cabozantinib, N′1-{4-[(6,7-dimethoxyquinolin-4-yl)oxy]phenyl}-N1-(4-fluorophenyl)cyclopropane-1,1-dicarboxamide]
IC50 (VEGFR2): […] | Increase of oxidation / metabolite formation by co-expression of cyt b5 with CYP3A4 (CYP3A4 + cyt b5): more than 2.9 fold | Inhibition of CYP3A4-mediated testosterone 6β-hydroxylation (CYP3A4): did not inhibit | IC50 (MET): 2 nM | IC50 (RET): […] | Oxidation of cabozantinib by FMO 1 (FMO1): ineffective
